Several values for one entry are separate records, joined by “and”; a condition that tells them apart may be missing. Identical values can stand only once.
How the values were obtained:
[1] = test system: OHSS rats; assay: Dose response of quinagolide on vascular permeability in OHSS rats (Example 4); assay type: in vivo, Wistar rats; conditions: single rat, 48-56 h after hCG
Method: (§1) Inducing OHSS manifestations. A total of 96 female immature Wistar rats (Harlan Iberica, Sant Feliu de Codina, Barcelona, SPAIN), weighing from 42-48 grams at the beginning of these experiments (day 22), were used to carry out the studies disclosed in Examples 4 and 5. They were injected subcutaneously (s.c) with 10 IU of Pregnant Mare's Serum Gonadotropin (PMSG) (Sigma) for 4 consecutive days (days 22-25), followed by administered intraperitoneally (i.p.) with 30 IU of hCG on the fifth day (day 26) in order to induce OHSS clinical manifestations.
(§2) Measuring vascular permeability (VP). VP was used as an index to estimate and compare the degree of development of the illness. VP was measured in all animals 48-56 hours after hCG administration, following methodology previously described (Gomez et al., supra). Briefly, 0.2 ml Evans Blue dye, 0.05 M, was injected through the femoral vein. After 30 minutes, the peritoneal cavity was irrigated with 5 ml saline, pH 6, 22° C., and massaged for 30 seconds to recover extravasated dye. The peritoneal fluid was recovered in 13 ml tubes containing 0.1 ml NaOH. The tubes were centrifuged at 900×g for 12 minutes to avoid protein interference. The supernatant was filtered through 0.22 um filters in order to eliminate ascitic protein/fibrin mucus which could interfere in the posterior measurements. Finally the absorbance of the extravasated dye was measured at 595 nm using a spectrophotometer. Average and average deviations in each group (see below) were calculated. VP was expressed as μg extravasated Evans Blue dye/100 g body weight in each animal.
A total of 70 rats were used for this study. All 70 rats were administered PMSG/hCG to induce OHSS symptoms, as described above. Quinagolide (batch no. 1010003004; supplied by Ferring Labs) was administered to 56 rats. The 56 rats that received quinagolide were used as a dose response test group. […] Cabergoline (Dostinex®) was administered to 6 rats as a positive control. The specific details of the dosing regimen for each group is as follows:
Vehicle control group (quinagolide 0 μg/kg) (n=8). Eight rats were implanted with prolactin placebo pellets, 5 days release, between 10:00 to 11:00 on day 26, just following hCG injection (see General Procedures, above). Six hours after pellet implantation, the rats in this group were orally administered vehicle solution (1:6 alcohol in water mixture) (without quinagolide). They received another oral vehicle administration of vehicle solution 24 hours later. Experimental groups (quinagolide at 0.1, 0.3, 1, 3, 10, 25, 50 μg/kg/day to 7 test groups of rats) (n=8 in each test group). The rats in these groups were implanted with prolactin pellets, 5 days release, between 10:00 to 11:00 on day 26, just following hCG injection (see General Procedures, above). […] In this manner, the desired 0.1, 0.3, 1, 3, 10, 25, 50 μg/kg doses to be assayed were achieved. Twenty four hours later, the rats in this group were administered with another dose of the same amounts of quinagolide. Positive (cabergoline) control group (n=6). These six rats were implanted with prolactin pellets, 5 days release, between 10:00 to 11:00 .m on day 26, just following hCG injection. […] Twenty four hours later, the rats in this group were administered with another dose of the same amount of cabergoline. […] Reconstitution and dilution process to reach appropriate quinagolide doses for oral administration. Appropriate doses were prepared fresh just prior to being administered (on day 26). A single quinagolide vial, containing approximately 2.30-2.30 mg quinagolide, was employed for each single set of animals. For each solution, approximately 2.30-2.30 mg quinagolide was diluted in a vehicle solution (1:6 alcohol:water mixture) to achieve a stock concentration of 100 μg quinagolide per ml solution. […]

[2] = test system: OHSS rats; assay: Dose response of quinagolide on vascular permeability in OHSS rats, reassessment (Example 5); assay type: in vivo, Wistar rats; conditions: single rat
Method: as §1, §2
For Example 5, three quinagolide doses were tested: 5, […] 250 μg/kg/day. The 250 μg/kg/day dose was tested in order to determine if the maximal potential inhibitory effect of quinagolide had been reached in Example 4.
A total of 26 rats were used for this study. All 26 rats were administered PMSG/hCG to induce OHSS symptoms, as described above. Quinagolide was administered to 18 rats, divided into three groups of six rats per group. The 18 rats that received quinagolide were used as a dose response test group. […] A positive control group was not employed for this Example. The specific details of the dosing regimen for each group is as follows:
Vehicle control group (quinagolide 0 μg/kg) (n=8). Eight rats were implanted with prolactin placebo pellets, 5 days release, between 10:00 to 11:00 on day 26, just following hCG injection (see General Procedures, above). Six hours after prolactin placebo pellet implantation, the rats in this group were orally administered vehicle solution (1:6 alcohol:water mixture) (without quinagolide). They received another oral administration of vehicle solution 24 hours later. Experimental groups (quinagolide at 5, 62.5, 250 μg/kg/day to 3 test groups of rats) (n=6 in each test group). These rats were implanted with prolactin pellets, 5 days release, between 10:00 to 11:00 am on day 26, just following hCG injection (see General Procedures, above). […] In this manner, the desired 5, 62.5, and 250 μg/kg doses to be assayed were achieved. Twenty four hours later, the rats in this group were administered with another dose of the same amounts of quinagolide. Reconstitution and dilution process to reach appropriate quinagolide doses for oral administration. A commercial drug, Norprolac®, was used as the source of quinagolide for this Example. Four Norprolac® pills, containing 150 μg quinagolide each (600 μg quinagolide total) were diluted in 6250 μl of distilled water. A volume of 1250 μl of alcohol was added to reach a vehicle solution (1:6 alcohol:water mixture) containing 80 μg quinagolide per ml solution. A 1.5 ml aliquot was serially diluted (1:4, 1:12.5) in the same vehicle solution. A 250 μl oral administration of each quinagolide solution was given to the appropriate rat in each group on the same day hCG was administered (day 26), as described. […]

[3] = quinagolide 5 μg/kg/day oral (Norprolac pills)
[4] = quinagolide 250 μg/kg/day oral (Norprolac pills)
[5] = quinagolide 62. μg/kg/day oral (Norprolac pills)

Structure (SMILES): CCCN1CC(NS(=O)(=O)N(CC)CC)CC2Cc3c(O)cccc3CC21 (stereo not drawn) [Quinagolide, quinagolide]
- Absorbance at 595 nm ([1]; quinagolide 0.1 μg/kg/day oral): 0.081 and 0.646 and 0.338 and 0.35
- μg EB per 100 g body weight ([1]; quinagolide 0.1 μg/kg/day oral): 4.871 μg EB per 100 g body weight and 37.81 μg EB per 100 g body weight and 21.05 μg EB per 100 g body weight and 21.19 μg EB per 100 g body weight
- μg Evans Blue (Abs * 4360) ([1]; quinagolide 0.1 μg/kg/day oral): 353.16 µg and 2816.56 µg and 1473.68 µg and 1526 µg
- Absorbance at 595 nm ([1]; quinagolide 0.3 μg/kg/day oral): 0.28 and 0.547 and 0.768 and 0.342 and 0.444
- μg EB per 100 g body weight ([1]; quinagolide 0.3 μg/kg/day oral): 16.96 μg EB per 100 g body weight and 36.69 μg EB per 100 g body weight and 47.84 μg EB per 100 g body weight and 20.57 μg EB per 100 g body weight and 25.8112 μg EB per 100 g body weight
- μg Evans Blue (Abs * 4360) ([1]; quinagolide 0.3 μg/kg/day oral): 1220.8 µg and 2384.92 µg and 3348.48 µg and 1491.12 µg and 1935.84 µg
- Absorbance at 595 nm ([1]; quinagolide 1 μg/kg/day oral): 0.396 and 0.341 and 0.389 and 0.424 and 0.256 and 0.205
- μg EB per 100 g body weight ([1]; quinagolide 1 μg/kg/day oral): 27.85 μg EB per 100 g body weight and 22.53 μg EB per 100 g body weight and 22.32 μg EB per 100 g body weight and 26.41 μg EB per 100 g body weight and 14.31 μg EB per 100 g body weight and 12.33 μg EB per 100 g body weight
- μg Evans Blue (Abs * 4360) ([1]; quinagolide 1 μg/kg/day oral): 1726.56 µg and 1486.76 µg and 1696.04 µg and 1848.64 µg and 1116.16 µg and 893.8 µg
- Absorbance at 595 nm ([1]; quinagolide 3 μg/kg/day oral): 0.09 and 0.394 and 0.181 and 0.584 and 0.369 and 0.581
- μg EB per 100 g body weight ([1]; quinagolide 3 μg/kg/day oral): 5.945 μg EB per 100 g body weight and 26.84 μg EB per 100 g body weight and 9.927 μg EB per 100 g body weight and 37.17 μg EB per 100 g body weight and 23.32 μg EB per 100 g body weight and 31.08 μg EB per 100 g body weight
- μg Evans Blue (Abs * 4360) ([1]; quinagolide 3 μg/kg/day oral): 392.4 µg and 1717.84 µg and 789.16 µg and 2546.24 µg and 1608.84 µg and 2533.16 µg
- Absorbance at 595 nm ([1]; quinagolide 10 μg/kg/day oral): 0.418 and 0.145 and 0.188 and 0.328 and 0.626
- μg EB per 100 g body weight ([1]; quinagolide 10 μg/kg/day oral): 24.63 μg EB per 100 g body weight and 8.543 μg EB per 100 g body weight and 12.42 μg EB per 100 g body weight and 19.73 μg EB per 100 g body weight and 37.39 μg EB per 100 g body weight
- μg Evans Blue (Abs * 4360) ([1]; quinagolide 10 μg/kg/day oral): 1822.48 µg and 632.2 µg and 819.68 µg and 1430.08 µg and 2729.36 µg
- Absorbance at 595 nm ([1]; quinagolide 25 μg/kg/day oral): 0.299 and 0.311 and 0.042 and 0.669 and 0.08
- μg EB per 100 g body weight ([1]; quinagolide 25 μg/kg/day oral): 19.17 μg EB per 100 g body weight and 19.23 μg EB per 100 g body weight and 2.654 μg EB per 100 g body weight and 40.51 μg EB per 100 g body weight and 4.501 μg EB per 100 g body weight
- μg Evans Blue (Abs * 4360) ([1]; quinagolide 25 μg/kg/day oral): 1303.64 µg and 1355.96 µg and 183.12 µg and 2916.84 µg and 348.8 µg
- Absorbance at 595 nm ([1]; quinagolide 50 μg/kg/day oral): 0.179 and 0.048 and 0.151 and 0.358 and 0.09 and 0.215
- μg EB per 100 g body weight ([1]; quinagolide 50 μg/kg/day oral): 10.84 μg EB per 100 g body weight and 2.847 μg EB per 100 g body weight and 9.144 μg EB per 100 g body weight and 22.95 μg EB per 100 g body weight and 5.267 μg EB per 100 g body weight and 12.5 μg EB per 100 g body weight
- μg Evans Blue (Abs * 4360) ([1]; quinagolide 50 μg/kg/day oral): 780.44 µg and 209.28 µg and 658.36 µg and 1560.88 µg and 392.4 µg and 937.4 µg
- Absorbance at 595 nm [2, 3]: 0.622 and 0.924 and 0.491 and 0.181 and 0.242 and 0.335
- μg EB per 100 g body weight [2, 3]: 38.74 μg EB per 100 g body weight and 55.57 μg EB per 100 g body weight and 28.74 μg EB per 100 g body weight and 10.96 μg EB per 100 g body weight and 14.76 μg EB per 100 g body weight and 22.13 μg EB per 100 g body weight
- μg Evans Blue (Abs * 4360) [2, 3]: 2711.92 µg and 4028.64 µg and 2140.76 µg and 789.16 µg and 1055.12 µg and 1460.6 µg
- Absorbance at 595 nm [2, 4]: 0.03 and 0.036 and 0.1709 and 0.021 and 0.103 and 0.056
- μg EB per 100 g body weight [2, 4]: 1.721 μg EB per 100 g body weight and 2.854 μg EB per 100 g body weight and 10.88 μg EB per 100 g body weight and 1.356 μg EB per 100 g body weight and 6.703 μg EB per 100 g body weight and 3.513 μg EB per 100 g body weight
- μg Evans Blue (Abs * 4360) [2, 4]: 130.8 µg and 156.96 µg and 745.124 µg and 91.56 µg and 449.08 µg and 244.16 µg
- Absorbance at 595 nm [2, 5]: 0.115 and 0.125 and 0.256 and 0.209 and 0.299 and 0.201
- μg EB per 100 g body weight [2, 5]: 7.214 μg EB per 100 g body weight and 7.517 μg EB per 100 g body weight and 16.06 μg EB per 100 g body weight and 13.3 μg EB per 100 g body weight and 19.03 μg EB per 100 g body weight and 12.26 μg EB per 100 g body weight
- μg Evans Blue (Abs * 4360) [2, 5]: 501.4 µg and 545 µg and 1116.16 µg and 911.24 µg and 1303.64 µg and 876.36 µg

Reference: patent US8334298B2, “Treatment or prevention of ovarian hyperstimulation syndrome (OHSS) using a dopamine agonist” (Ferring International Center S.A., priority 2005, dated 2012)
